Earlier results as cited in patent US11311621B2, “Organosilicon compound microparticles and process for their preparation” (SILICIUM ESPAÑA LABORATORIOS, S.L., priority 2018, dated 2022).

Conditions: 21° C., without irreversible polymerization after 2 months

monomethylsilanetriol [MMST]
solubility of MMST in water without irreversible polymerization: up to 21 mM
solubility of MMST in water without irreversible polymerization (as silicon): ≤ 588 mg Si/L
